Read-outs that look alike come from different tables or passages of the source.
How the values were obtained:
[1] = tested on: Escherichia coli VKPM (B-7935); experiment: Biofilm formation assay (MTT); type: cell-based
Experimental: (§1) The Gram-positive bacterial Staphylococcus aureus ATCC 21027, Gram-negative bacterial Escherichia coli VKPM (B-7935), and yeast-like fungal Candida albicans KMM 455 strains were fermented on solid medium Mueller Hinton broth with agar (16.0 g/L) in a Petri dish at 37 °C for 24 h. The antimicrobial activity of the compound was tested at concentrations ranging from 100 µM and lower. The effect of the compound on bacterial growth was estimated as described by. Gentamicin and amphotericin B were used as positive controls against S. aureus, E. coli, and C. albicans, and a 1% dimethyl sulfoxide (DMSO) solution in PBS was used as a negative control. The optical density of the bacterial suspension after 18 h was measured at λ = 620 nm. The effect of the compound on biofilm formation for 18 h was tested using MTT reagent (Sigma-Aldrich, St. Louis, MO, USA) in accordance with. The optical density of the obtained solution was measured at λ = 570 nm. A Multiskan FS spectrophotometer (Thermo Scientific Inc., Beverly, MA, USA) was used for both assays. The results were calculated as percentages of the control data and presented as minimal concentrations reduced by 50% of growth or biofilm formation (MIC50).

[2] = tested on: Staphylococcus aureus ATCC 21027; experiment: Biofilm formation assay (MTT); type: cell-based
Experimental: as §1

[3] = tested on: Candida albicans KMM 455; experiment: Biofilm formation assay (MTT); type: cell-based
Experimental: as §1

[4] = tested on: Escherichia coli VKPM (B-7935); experiment: Antimicrobial assay, growth inhibition (optical density); type: cell-based
Experimental: as §1

[5] = tested on: Staphylococcus aureus ATCC 21027; experiment: as above; type: cell-based; conditions: Staphylococcus aureus
Experimental: as §1

[6] = tested on: Candida albicans KMM 455; experiment: as above; type: cell-based
Experimental: as §1

[7] = tested on: H9c2 cardiomyocytes; experiment: Cell viability assay (MTT); type: cell-based, rat
Description: (§2) Rat cardiomyocyte H9c2 cells were kindly provided by Prof. Dr. Gunhild von Amsberg from the Martini-Klinik Prostate Cancer Center, University Hospital Hamburg-Eppendorf, Hamburg, Germany. The human HaCaT keratinocyte cell line was kindly provided by Prof. N. Fusenig (Cancer Research Centre, Heidelberg, Germany). Non-cancerous human breast epithelial MCF-10A cells were kindly provided by Dr. Irina Zhitnyak (N. N. Blokhin National Medical Research Center of Oncology, Moscow, Russia). Human breast cancer MCF-7 HTB-22 and MDA-MB-231 cells were obtained from the ATTC (Manassas, VA, USA).
(§3) H9c2 and HaCaT cells were cultured in DMEM with 10% fetal bovine serum and 1% penicillin/streptomycin (BioloT, St. Petersburg, Russia). MCF-7 and MDA-MB-231 cells were cultured in MEM (BioloT, St. Petersburg, Russia) with 10% fetal bovine serum (FBS) and 1% penicillin/streptomycin (BioloT, St. Petersburg, Russia). MCF 10A cells were cultured in DMEM F12 medium (BioloT, St. Petersburg, Russia) supplemented with 20% FBS, 20 ng/mL hrEGF (Sci-Store, Moscow, Russia), and 1% penicillin/streptomycin (BioloT, St. Petersburg, Russia). All cells were cultured at 37 °C in a humidified atmosphere containing 5% CO2.
(§4) H9c2 cells were seeded at a concentration of 3 × 10^3 cells/well. MCF-10A, MCF-7, and MDA-MB-231 cells were seeded at 5 × 10^3 cells/well, and HaCaT cells were seeded at 1 × 10^4 cells/well. The experiments were initiated after 24 h.
(§5) Compounds at concentrations up to 100 µM were added to the wells for 24h or 48 h, and the viability of the cells was measured using an MTT (3-(4,5-dimethylthiazol-2-yl)-2,5-diphenyltetrazolium bromide) assay, which was performed according to the manufacturer’s instructions (Sigma-Aldrich, Munich, Germany). […] DMSO was used as a control. The results are presented as percentages of the control data.

[8] = Cell viability assay (MTT); type: cell-based, rat; conditions: rat, H9c2 cardiomyocytes, read-out: Cytotoxicity IC50
Description: as §2, §3, §4, §5

[9] = tested on: MCF-10A breast epithelial cells; experiment: Cell viability assay (MTT); type: cell-based, human; conditions: MCF10A
Description: as §2, §3, §4, §5

[10] = tested on: HaCaT keratinocytes; experiment: Cell viability assay (MTT); type: cell-based, human
Description: as §2, §3, §4, §5

[11] = tested on: MDA-MB-231 breast cancer cells; experiment: Cell viability assay (MTT); type: cell-based, human
Description: as §2, §3, §4, §5

[12] = tested on: MCF-7 breast cancer cells; experiment: Cell viability assay (MTT); type: cell-based, human
Description: as §2, §3, §4, §5

[13] = Cell viability assay (MTT); type: cell-based, human; conditions: human, read-out: Cytotoxicity IC50
Description: as §2, §3, §4, §5

**Q.** With `COc1c(OC)c(-c2c[nH]c3ccccc23)c(OC)c(OC)c1-c1c[nH]c2ccccc12` [Compound 7, asterriquinol D dimethyl ether] as the compound, how does the “Biofilm formation, MIC50” value ([1]; E. coli, 18 h) read?
**A.** >100 µM

**Q.** What about the “effect on E. coli biofilm formation” value ([1]; at / up to 100 µM) of the same compound?
**A.** did not affect

**Q.** What about the “Biofilm formation, MIC50” value ([2]; S. aureus, 18 h) of the same compound?
**A.** >100 µM

**Q.** And the “effect on S. aureus biofilm formation” value ([2]; at / up to 100 µM)?
**A.** did not affect

**Q.** And the “Biofilm formation, MIC50” value ([3]; C. albicans, 18 h)?
**A.** >100 µM

**Q.** And the “effect on C. albicans biofilm formation” value ([3]; at 100 µM)?
**A.** did not affect

**Q.** What about the MIC50 ([4]; Escherichia coli, 18 h, E. coli) of the same compound?
**A.** > 100 µM

**Q.** What about the “effect on E. coli growth” value ([4]; at / up to 100 µM) of the same compound?
**A.** did not affect

**Q.** And the MIC50 ([5]; ATCC21027, 18 h, S. aureus, 18 h)?
**A.** > 100 µM

**Q.** What about the inhibition at 100 µM ([5]; ATCC21027, at 100 µM, read-out: inhibition of S. aureus growth) of the same compound?
**A.** 42.2 ± 2.07%

**Q.** What about the MIC50 ([6]; Candida albicans, KMM455, 18 h, C. albicans, 18 h) of the same compound?
**A.** > 100 µM

**Q.** And the “effect on C. albicans growth” value ([6]; at / up to 100 µM)?
**A.** did not affect

**Q.** What about the cell viability ([7]; H9c2, 24 h, 1.0 µM) of the same compound?
**A.** 101.5 ± 1.3 % of control

**Q.** And the cell viability ([7]; H9c2, 24 h, 10.0 µM)?
**A.** 76.9 ± 2.8 % of control

**Q.** What about the cell viability ([7]; H9c2, 24 h, 100.0 µM) of the same compound?
**A.** 59.0 ± 5.3 % of control

**Q.** And the cell viability ([7]; H9c2, 48 h, 1.0 µM)?
**A.** 102.8 ± 7.6 % of control

**Q.** What about the cell viability ([7]; H9c2, 48 h, 10.0 µM) of the same compound?
**A.** 76.3 ± 3.9 % of control

**Q.** What about the cell viability ([7]; H9c2, 48 h, 100.0 µM) of the same compound?
**A.** 32.8 ± 1.4 % of control

**Q.** And the IC50 at 24 h ([8]; H9c2, 24 h)?
**A.** > 100 µM

**Q.** And the IC50 at 48 h ([8]; H9c2, 48 h)?
**A.** 69.9 ± 2.3 µM

**Q.** What about the cell viability ([9]; 24 h, 1.0 µM) of the same compound?
**A.** 102.7 ± 5.1 % of control

**Q.** And the cell viability ([9]; 24 h, 10.0 µM)?
**A.** 100.2 ± 3.8 % of control

**Q.** And the cell viability ([9]; 24 h, 100.0 µM)?
**A.** 59.6 ±2.1 % of control

**Q.** And the cell viability ([9]; 48 h, 1.0 µM)?
**A.** 97.7 ± 1.4 % of control

**Q.** What about the cell viability ([9]; 48 h, 10.0 µM) of the same compound?
**A.** 93.1 ± 3.6 % of control

**Q.** What about the cell viability ([9]; 48 h, 100.0 µM) of the same compound?
**A.** 78.9 ± 5.7 % of control

**Q.** And the cell viability ([10]; 24 h, 1.0 µM)?
**A.** 100.7 ± 3.8 % of control

**Q.** What about the cell viability ([10]; 24 h, 10.0 µM) of the same compound?
**A.** 85.6 ± 7.6 % of control

**Q.** And the cell viability ([10]; 24 h, 100.0 µM)?
**A.** 64.1 ± 3.2 % of control

**Q.** What about the cell viability ([10]; 48 h, 1.0 µM) of the same compound?
**A.** 94.2 ± 8.7 % of control

**Q.** And the cell viability ([10]; 48 h, 10.0 µM)?
**A.** 78.1 ± 6.4 % of control

**Q.** What about the cell viability ([10]; 48 h, 100.0 µM) of the same compound?
**A.** 40.1 ± 2.9 % of control

**Q.** What about the cell viability ([11]; MDA-MB-231, 24 h, 1.0 µM) of the same compound?
**A.** 102.7 ± 1.6 % of control

**Q.** What about the cell viability ([11]; MDA-MB-231, 24 h, 10.0 µM) of the same compound?
**A.** 75.9 ± 4.8 % of control

**Q.** And the cell viability ([11]; MDA-MB-231, 24 h, 100.0 µM)?
**A.** 53.6 ± 4.2 % of control

**Q.** And the cell viability ([11]; MDA-MB-231, 48 h, 1.0 µM)?
**A.** 99.8 ± 3.7 % of control

**Q.** And the cell viability ([11]; MDA-MB-231, 48 h, 10.0 µM)?
**A.** 82.9 ± 6.3 % of control

**Q.** And the cell viability ([11]; MDA-MB-231, 48 h, 100.0 µM)?
**A.** 43.5 ± 2.5 % of control

**Q.** And the cell viability ([12]; MCF-7, 24 h, 1.0 µM)?
**A.** 99.4 ± 4.4 % of control

**Q.** What about the cell viability ([12]; MCF-7, 24 h, 10.0 µM) of the same compound?
**A.** 65.4 ± 2.9 % of control

**Q.** And the cell viability ([12]; MCF-7, 24 h, 100.0 µM)?
**A.** 56.0 ± 4.5 % of control

**Q.** What about the cell viability ([12]; MCF-7, 48 h, 1.0 µM) of the same compound?
**A.** 91.5 ± 6.3 % of control

**Q.** What about the cell viability ([12]; MCF-7, 48 h, 10.0 µM) of the same compound?
**A.** 70.0 ± 5.2 % of control

**Q.** What about the cell viability ([12]; MCF-7, 48 h, 100.0 µM) of the same compound?
**A.** 43.9 ± 3.5 % of control

**Q.** What about the IC50 at 24 h ([13]; HaCaT keratinocytes, 24 h) of the same compound?
**A.** > 100 µM

**Q.** What about the IC50 at 48 h ([13]; HaCaT keratinocytes, 48 h) of the same compound?
**A.** 80.5 ± 1.8 µM

**Q.** What about the IC50 at 24 h ([13]; MCF-7 breast cancer cells, MCF-7, 24 h) of the same compound?
**A.** > 100 µM

**Q.** What about the IC50 at 48 h ([13]; MCF-7 breast cancer cells, MCF-7, 48 h) of the same compound?
**A.** 79.1 ± 2.4 µM

**Q.** And the IC50 at 24 h ([13]; MCF-10A breast epithelial cells, MCF10A, 24 h)?
**A.** > 100 µM

**Q.** And the IC50 at 48 h ([13]; MCF-10A breast epithelial cells, MCF10A, 48 h)?
**A.** > 100 µM

**Q.** And the IC50 at 24 h ([13]; MDA-MB-231 breast cancer cells, MDA-MB-231, 24 h)?
**A.** > 100 µM

**Q.** And the IC50 at 48 h ([13]; MDA-MB-231 breast cancer cells, MDA-MB-231, 48 h)?
**A.** 85.1 ± 1.5 µM

Source: publication PMC12471299, “Secondary Metabolites of the Marine Sponge-Derived Fungus Aspergillus subramanianii 1901NT-1.40.2 and Their Antimicrobial and Anticancer Activities” (Marine Drugs, 2025)
